Results from US20060148858A1, “1, 2-Azole derivatives with hypoglycemic and hypolipidemic activity” (priority 2002, published 2006).
Where two headings read alike, the source gives them in different places.

Tests used:
[1] = target: T1, PPARδ-RXRα heterodimer (Homo sapiens, UniProt Q03181); assay: PPARδ-RXRα heterodimer ligand activity, luciferase reporter in COS-1 transformant (Test Example 4); type: cell-based; conditions: COS-1 transformant (hPPARδ, hRXRα, reporter), 36-48 hours, concentration for 50% of the maximum fold induction
T1 construct: expressed in transfected cells; host or cells: COS-1
T1 sequence (Q03181 1-441): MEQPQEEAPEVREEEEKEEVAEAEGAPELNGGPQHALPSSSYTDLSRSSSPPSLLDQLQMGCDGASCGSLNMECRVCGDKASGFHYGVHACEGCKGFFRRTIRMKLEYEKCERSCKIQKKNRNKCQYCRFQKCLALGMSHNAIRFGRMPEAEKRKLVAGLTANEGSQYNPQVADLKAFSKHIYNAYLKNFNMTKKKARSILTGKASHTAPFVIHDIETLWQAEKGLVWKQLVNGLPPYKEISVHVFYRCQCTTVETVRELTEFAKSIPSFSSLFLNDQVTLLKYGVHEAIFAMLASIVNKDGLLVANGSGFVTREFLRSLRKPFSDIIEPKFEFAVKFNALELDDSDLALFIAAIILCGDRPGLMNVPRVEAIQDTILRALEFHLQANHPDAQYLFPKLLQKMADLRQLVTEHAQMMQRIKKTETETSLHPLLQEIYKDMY
T1 sequence (P19793 1-462 partner): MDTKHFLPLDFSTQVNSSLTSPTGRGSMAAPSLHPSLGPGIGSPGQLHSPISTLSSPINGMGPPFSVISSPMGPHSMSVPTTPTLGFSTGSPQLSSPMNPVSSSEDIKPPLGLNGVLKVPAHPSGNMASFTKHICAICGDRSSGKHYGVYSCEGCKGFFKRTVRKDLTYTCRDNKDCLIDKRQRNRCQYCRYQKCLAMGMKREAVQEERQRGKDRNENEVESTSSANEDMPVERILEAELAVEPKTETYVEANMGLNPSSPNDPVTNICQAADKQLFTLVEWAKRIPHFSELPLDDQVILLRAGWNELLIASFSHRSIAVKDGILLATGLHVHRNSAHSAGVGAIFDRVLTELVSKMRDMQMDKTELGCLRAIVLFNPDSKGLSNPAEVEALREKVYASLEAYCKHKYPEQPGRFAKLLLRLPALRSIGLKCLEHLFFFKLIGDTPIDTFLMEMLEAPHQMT
Procedure, shortened: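 COS-1 cells transiently co-transfected with human PPARδ, human RXRα, PPRE-luciferase reporter and pRL-tk, then exposed to compound 36-48 h at 37 °C in DMEM with 0.1% fatty acid-free BSA. Luciferase read as fold induction over untreated; EC50 at 50% of maximal fold induction.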

[2] = tested on: KKAY mice; assay: Hypoglycemic and hypolipidemic actions in mice (Test Example 1); type: in vivo; conditions: Mus musculus, po, 96 h, 0.005% in powdery diet, four days, non-treated group taken as 100%
Procedure, shortened: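 KKAY mice (9 to 12 weeks old, 5 per group) were fed diet containing 0.005% test compound ad libitum for four days. Plasma glucose and triglycerides from orbital venous blood were measured enzymatically, reported as % decrease relative to untreated group (100%).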

[3] = rate of decrease in blood glucose level, read-out: Hypoglycemic action (%)
[4] = rate of decrease in blood triglyceride level, read-out: Hypolipidemic action (%)

SMILES	EC50 [1]	inhibition in vivo at 0.005 % in diet [2, 3]	inhibition in vivo at 0.005 % in diet [2, 4]
CC(C)c1nn(-c2ccc(C(F)(F)F)cn2)cc1CCCOc1cc(CCC(=O)O)n(-c2ccccc2)n1 [Example 24, 3-[3-(3-{3-isopropyl-1-[5-(trifluoromethyl)-2-pyridyl]-1H-pyrazol-4-yl}propoxy)-1-phenyl-1H-pyrazol-5-yl]propionic acid]	9.3 nM		
CCOc1nn(-c2ccc(C(F)(F)F)cn2)cc1CCCOc1cccc(CC(=O)O)c1 [Example 30, [3-(3-{3-ethoxy-1-[5-(trifluoromethyl)-2-pyridyl]-1H-pyrazol-4-yl}propoxy)phenyl]acetic acid]	2.6 nM	35%	58%
CCOc1nn(-c2ccc(C(F)(F)F)cn2)cc1CCCOc1ccccc1CC(=O)O [Example 31, (2-(3-{3-ethoxy-1-[5-(trifluoromethyl)-2-pyridyl]-1H-pyrazol-4-yl}propoxy)phenyl]acetic acid]	9.6 nM	50%	69%
CCOc1nn(-c2ccc(C(F)(F)F)cn2)cc1CCCOc1cc(CCC(=O)O)n(-c2ccccc2)n1 [Example 42, 3-[3-(3-{3-ethoxy-1-[5-(trifluoromethyl)-2-pyridyl]-1H-pyrazol-4-yl}propoxy)-1-phenyl-1H-pyrazol-5-yl]propionic acid]	1.9 nM	32%	19%
CCCc1nn(-c2ccc(C(F)(F)F)cn2)cc1CCCOc1cc(CCC(=O)O)n(-c2ccccc2)n1 [Example 43, 3-[1-phenyl-3-(3-{3-propyl-1-[5-(trifluoromethyl)-2-pyridyl]-1H-pyrazol-4-yl}propoxy)-1H-pyrazol-5-yl]propionic acid]	3.7 nM		
CCCc1nn(-c2ccc(C(F)(F)F)cn2)cc1CCCCOc1cc(CCC(=O)O)n(-c2ccccc2)n1 [Example 58, 3-[1-phenyl-3-(4-{3-propyl-1-[5-(trifluoromethyl)-2-pyridinyl]-1H-pyrazol-4-yl}butoxy)-1H-pyrazol-5-yl]propanoic acid]	1.9 nM		
CCCc1nn(-c2ccc(C(F)(F)F)cn2)cc1CCCOc1ccc(CCC(=O)O)c(OCC)c1 [Example 98, 3-[2-ethoxy-4-(3-{3-propyl-1-[5-(trifluoromethyl)-2-pyridinyl]-1H-pyrazol-4-yl}propoxy)phenyl]propanoic acid]	1.2 nM		
CCOc1nn(-c2ccc(C(F)(F)F)cn2)cc1CCCCOc1cc(CCC(=O)O)n(-c2ccccc2)n1 [Example 104, 3-[3-(4-{3-ethoxy-1-[5-(trifluoromethyl)-2-pyridinyl]-1H-pyrazol-4-yl}butoxy)-1-phenyl-1H-pyrazol-5-yl]propanoic acid]	7 nM		
CCOc1nn(-c2ccc(C(F)(F)F)cn2)cc1CCCOc1ccc(CCC(=O)O)c(OC(C)C)c1 [Example 116, 3-[4-(3-{3-ethoxy-1-[5-(trifluoromethyl)-2-pyridinyl]-1H-pyrazol-4-yl}propoxy)-2-isopropoxyphenyl]propanoic acid]	0.6 nM		
O=C(O)CCc1cc(OCCCc2cn(-c3ccc(C(F)(F)F)cn3)nc2-c2ccccc2)nn1-c1ccccc1 [Example 125, 3-[1-phenyl-3-(3-{3-phenyl-1-[5-(trifluoromethyl)-2-pyridyl]-1H-pyrazol-4-yl}propoxy)-1H-pyrazol-5-yl]propionic acid]	1.5 nM		
CCOc1nn(-c2ccc(C(F)(F)F)cn2)cc1CCCCOc1ccccc1CC(=O)O [Example 137, [2-(4-{3-ethoxy-1-[5-(trifluoromethyl)-2-pyridyl]-1H-pyrazol-4-yl}butoxy)phenyl]acetic acid]	9.6 nM		
COc1cccc(CC(=O)O)c1OCCCc1cn(-c2ccc(C(F)(F)F)cn2)nc1C(C)C [Example 181, [2-(3-{3-isopropyl-1-[5-(trifluoromethyl)-2-pyridyl]-1H-pyrazol-4-yl}propoxy)-3-methoxyphenyl]acetic acid]	84 nM	49%	49%
O=C(O)CCc1cc(OCCCc2cn(-c3ccc(C(F)(F)F)cn3)nc2C2CCCCC2)nn1-c1ccccc1 [Example 189, 3-[3-(3-{3-cyclohexyl-1-[5-(trifluoromethyl)-2-pyridyl]-1H-pyrazol-4-yl}propoxy)-1-phenyl-1H-pyrazol-5-yl]propionic acid]	2.1 nM	50%	38%
CCOc1ccc(CC(=O)O)cc1OCCCc1cn(-c2ccc(C(F)(F)F)cn2)nc1C1CCCCC1 [Example 201, [3-(3-{3-cyclohexyl-1-[5-(trifluoromethyl)-2-pyridyl]-1H-pyrazol-4-yl}propoxy)-4-ethoxyphenyl]acetic acid]	1.2 nM		
CCC(CC)c1nn(-c2ccc(C(F)(F)F)cn2)cc1CCCOc1c(CC(=O)O)cccc1OC [Example 212, [2-(3-{3-(1-ethylpropyl)-1-[5-(trifluoromethyl)-2-pyridyl]-1H-pyrazol-4-yl}propoxy)-3-methoxyphenyl]acetic acid]	42 nM	52%	55%
CCC(CC)c1nn(-c2ccc(C(F)(F)F)cn2)cc1CCCOc1c(C)cccc1CC(=O)O [Example 213, [2-(3-{3-(1-ethylpropyl)-1-[5-(trifluoromethyl)-2-pyridyl]-1H-pyrazol-4-yl}propoxy)-3-methylphenyl]acetic acid]	8.3 nM	51%	52%
CCC(CC)c1nn(-c2ccc(Cl)cn2)cc1CCCOc1c(CC(=O)O)cccc1OC [Example 223, (2-{3-[1-(5-chloro-2-pyridyl)-3-(1-ethylpropyl)-1H-pyrazol-4-yl]propoxy}-3-methoxyphenyl)acetic acid]	97 nM	38%	55%
CCc1cccc(CC(=O)O)c1OCCCc1cn(-c2ccc(C(F)(F)F)cn2)nc1C(C)C [Example 227, [3-ethyl-2-(3-{3-isopropyl-1-[5-(trifluoromethyl)-2-pyridinyl]-1H-pyrazol-4-yl}propoxy)phenyl]acetic acid]	54 nM	43%	26%
CCCc1nn(-c2ccc(C(F)(F)F)cn2)cc1CCCOc1c(Br)cccc1CC(=O)O [Example 237, [3-bromo-2-(3-{3-propyl-1-[5-(trifluoromethyl)-2-pyridinyl]-1H-pyrazol-4-yl}propoxy)phenyl]acetic acid]	6.1 nM		
CCc1cccc(CC(=O)O)c1OCCCc1cn(-c2ccc(C(F)(F)F)nn2)nc1C(C)C [Example 245, [3-ethyl-2-(3-{3-isopropyl-1-[6-(trifluoromethyl)pyridazin-3-yl]-1H-pyrazol-4-yl}propoxy)phenyl]acetic acid]	130 nM	42%	55%
COc1ccc(CC(=O)O)cc1OCCCc1cn(-c2ccc(C(F)(F)F)cn2)nc1C1CCCCC1 [Example 304, [3-(3-{3-cyclohexyl-1-[5-(trifluoromethyl)-2-pyridinyl]-1H-pyrazol-4-yl}propoxy)-4-methoxyphenyl]acetic acid]	5.7 nM		
Cc1cccc(CC(=O)O)c1OCCCc1cn(-c2ccc(C(F)(F)F)cn2)nc1C1CCCCC1 [Example 316, [2-(3-{3-cyclohexyl-1-[5-(trifluoromethyl)-2-pyridinyl]-1H-pyrazol-4-yl}propoxy)-3-methylphenyl]acetic acid]	9.9 nM		
CCCc1nn(-c2ccc(C(F)(F)F)cn2)cc1CCCOc1c(C)cccc1CC(=O)O [Example 319, [3-methyl-2-(3-{3-propyl-1-[5-(trifluoromethyl)-2-pyridinyl]-1H-pyrazol-4-yl}propoxy)phenyl]acetic acid]	5.1 nM		
Cc1cccc(CC(=O)O)c1OCCCc1cn(-c2ccc(C(F)(F)F)nn2)nc1C(C)(C)C [Example 367, [2-(3-{3-tert-butyl-1-[6-(trifluoromethyl)pyridazin-3-yl]-1H-pyrazol-4-yl}propoxy)-3-methylphenyl]acetic acid]	150 nM		
